This is an account of results in ChEMBL document CHEMBL2331419, “Benzimidazole-carboxamides as potent and bioavailable stearoyl-CoA desaturase (SCD1) inhibitors from ligand-based virtual screening and chemical optimization” (Bioorg Med Chem Lett, 2013).

Bounds are passed on as bounds.

In data set [1] the target is T1, Acyl-CoA desaturase 1 (Rattus norvegicus, UniProt P07308).
T1 sequence (P07308 whole entry): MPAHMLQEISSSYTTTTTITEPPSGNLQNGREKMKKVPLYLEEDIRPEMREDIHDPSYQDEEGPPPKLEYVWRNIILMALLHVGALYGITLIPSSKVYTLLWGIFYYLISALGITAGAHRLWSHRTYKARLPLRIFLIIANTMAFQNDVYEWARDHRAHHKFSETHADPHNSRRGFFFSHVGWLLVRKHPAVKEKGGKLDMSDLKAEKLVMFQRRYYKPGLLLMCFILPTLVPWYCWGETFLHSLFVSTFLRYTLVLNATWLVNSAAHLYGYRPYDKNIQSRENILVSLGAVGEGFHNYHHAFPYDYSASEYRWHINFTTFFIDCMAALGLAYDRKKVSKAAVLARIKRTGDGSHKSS
Kind of data set: Inhibition of SCD1 in Wistar rat liver microsomes using [14C] stearic acid as substrate incubated for 10 mins prior to substrate addition measured after 1 hr by chromatographic analysis. On the set-up: species or system Microsome.

The test system of a further data set is HepG2. Put plainly: Inhibition of ACC phosphorylation in human HepG2 cells at 10 uM by Western blotting analysis relative to control. It is filed as cell-based.
Data set [2] in a line: Drug metabolism in rat. It is filed as ADME, organism-based. To be noted: in vivo, read-out: Drug metabolism.
The target of data set [3] is T1, Acyl-CoA desaturase 1. Put plainly: Inhibition of SCD1 in rat H42E cells. It is filed as cell-based.
Another data set concerns the target T2, Stearoyl-CoA desaturase (Homo sapiens, UniProt O00767).
T2 sequence (O00767 whole entry): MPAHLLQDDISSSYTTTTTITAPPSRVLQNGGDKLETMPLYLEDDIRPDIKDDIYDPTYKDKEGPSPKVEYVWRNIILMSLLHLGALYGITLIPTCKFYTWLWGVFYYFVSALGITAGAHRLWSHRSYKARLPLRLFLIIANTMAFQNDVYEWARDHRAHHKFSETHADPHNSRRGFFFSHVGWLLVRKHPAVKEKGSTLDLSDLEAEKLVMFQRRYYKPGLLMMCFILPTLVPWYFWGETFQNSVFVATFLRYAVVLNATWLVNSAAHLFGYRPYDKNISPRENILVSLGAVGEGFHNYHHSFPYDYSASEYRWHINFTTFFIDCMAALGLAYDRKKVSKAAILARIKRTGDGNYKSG
Put plainly: Inhibition of SCD1 in human HepG2 cells. It is filed as cell-based.

The nature of data set [4]: Drug metabolism in human in presence of quinidine. It is filed as ADME, organism-based. Conditions: in vivo, with quinidine, read-out: Drug metabolism.
Data set [5] is described as follows: Permeability across human Caco2 cells. The format is ADME, cell-based. To be noted: Caco-2, read-out: permeability.
Data set [6] in a line: Drug metabolism in human in presence of ketoconazole. The format is ADME, organism-based. To be noted: in vivo, with ketoconazole, read-out: Drug metabolism.
Data set [7] in a line: Drug metabolism in human. The format is ADME, organism-based. Conditions: in vivo, read-out: Drug metabolism.
Data set [8] in a line: Drug metabolism in mouse. The format is ADME, organism-based. Conditions: in vivo, read-out: Drug metabolism.
Data set [9] in a line: Oral bioavailability in Zucker diabetic fatty rat at 30 mg/kg. It is filed as ADME, organism-based. To be noted: in vivo.
Data set [10] has as its system Rattus norvegicus. Put plainly: Volume of distribution at steady state in Zucker diabetic fatty rat at 5 mg/kg, iv. Conditions: in vivo. On the set-up: dose 5 mg/kg, route intravenous. The format is ADME, organism-based.
The nature of data set [11]: Lipophilicity, log D of the compound at pH 7.4. To be noted: buffer. The format is physicochemical.
A short description of data set [12]: Half life in Zucker diabetic fatty rat at 5 mg/kg, iv. It is filed as ADME, organism-based. Set-up: dose 5 mg/kg, route intravenous. To be noted: in vivo.
Data set [13] concerns Rattus norvegicus. Kind of data set: In vivo inhibition of SCD1 in Zucker diabetic fatty rat assessed as decrease in serum fatty acid desaturation index at 30 mg/kg, po after 6 hrs relative to vehicle-treated control. It is filed as functional.
Data set [14] can be described thus: Apparent half life in Zucker diabetic fatty rat at 30 mg/kg, po. To be noted: in vivo, read-out: t1/2(app) (converted). The format is ADME, organism-based. On the set-up: dose 30 mg/kg, route oral.
A short description of data set [15]: Cmax in Zucker diabetic fatty rat at 30 mg/kg, po after 4 hrs. On the set-up: dose 30 mg/kg, route oral. The format is ADME, organism-based. Conditions: in vivo.
Data set [16] can be described thus: Plasma clearance in Zucker diabetic fatty rat at 5 mg/kg, iv. It is filed as ADME, organism-based. Set-up: dose 5 mg/kg, route intravenous.

In the case of `CC(C)CCNC(=O)c1ccc2nc(-c3ccc(Oc4ccccc4)cc3)[nH]c2c1`, the IC50 on Acyl-CoA desaturase 1 [1] came out at 21.6 µM.
In the case of `O=C(NCCC1CC1)c1ccc2[nH]c(-c3ccc(Oc4ccccc4Cl)cc3)nc2c1`, the inhibition in the data set with HepG2 worked out at 140%.
`O=C(c1ccc2nc(-c3ccc(OCc4ccccc4)cc3)[nH]c2c1)c1ccccc1C(F)(F)F` returned an IC50 against Acyl-CoA desaturase 1 [1] of 13.3 µM.
In turn, `O=C(CCc1ccccc1)Nc1ccc(N2CCN(C(=O)c3ccccc3C(F)(F)F)CC2)nc1` came in with an IC50 on Acyl-CoA desaturase 1 [1] of 2.26 µM.
`O=C(NCC1CC1)c1ccc2[nH]c(-c3ccc(Oc4ccccc4)cc3)nc2c1` registered an IC50 against Acyl-CoA desaturase 1 [1] of 16.6 µM.
In the case of `O=C(Cc1cccs1)Nc1ccc2nc(N3CCN(C(=O)c4ccccc4C(F)(F)F)CC3)[nH]c2c1`, the IC50 against Acyl-CoA desaturase 1 [1] came out at 3.2 µM.
`O=C(Nc1nccs1)c1ccc2nc(-c3ccc(C(=O)c4ccccc4C(F)(F)F)cc3)[nH]c2c1` yielded an IC50 on Acyl-CoA desaturase 1 [1] of 4.52 µM.
In the case of `OC(c1ccc2[nH]c(-c3ccc(OCc4ccccc4)cc3)nc2c1)c1ccccc1C(F)(F)F` (racemic), the metabolised in [2] turned out to be 20%; in [4], 60%; in data set [6], 46%; in data set [7], 71%. For the same compound, the IC50 turned out to be 0.014 µM on Acyl-CoA desaturase 1 [3], 0.295 µM against Stearoyl-CoA desaturase and 0.082 µM against Acyl-CoA desaturase 1 [1]. Further, the Papp in data set [5] stood at 18.2 ×10⁻⁶ cm/s.
With `O=C(NCCCc1ccccc1)c1ccc2nc(-c3ccc(Oc4ccccc4)cc3)[nH]c2c1`, the IC50 against Acyl-CoA desaturase 1 [1] turned out to be 28.3 µM.
`O=C(NCc1nccs1)c1ccc2[nH]c(-c3ccc(C(=O)c4ccccc4C(F)(F)F)cc3)nc2c1`: the results for the IC50 against Acyl-CoA desaturase 1 [3], at Stearoyl-CoA desaturase and against Acyl-CoA desaturase 1 [1] were 0.104 µM, 0.179 µM and 0.078 µM, respectively.
With `CCOC(=O)c1ccc2[nH]c(-c3ccc(Oc4ccccc4C(F)(F)F)cc3)nc2c1`, half-maximal inhibition at Acyl-CoA desaturase 1 [1] (IC50) required 38.3 µM.
In the case of `O=C(NCCC1CC1)c1ccc2nc(-c3ccc(Oc4ccccc4)cc3)[nH]c2c1`, the IC50 at Acyl-CoA desaturase 1 [1] was 24.9 µM.
Still for that read-out and setting: the same measure for `CC(C)CCNC(=O)c1ccc2nc(-c3ccc(Oc4ccccc4C(F)(F)F)cc3)[nH]c2c1`: 0.434 µM; for `O=C(NCc1ccc(Cl)s1)c1cccc(-c2nc3cc(Oc4ccccc4C(F)(F)F)ccc3[nH]2)c1`: 2.21 µM; for `O=C(NCc1nccs1)c1cccc(-c2nc3cc(Oc4ccccc4C(F)(F)F)ccc3[nH]2)c1`: 1.3 µM.
For the compound `O=C(NCc1ccc(Cl)s1)c1ccc2nc(-c3ccc(Oc4ccccc4C(F)(F)F)cc3)[nH]c2c1`, the IC50 amounted to 0.439 µM on Stearoyl-CoA desaturase and 0.142 µM on Acyl-CoA desaturase 1 [1].
`O=C(NCCC1CC1)c1ccc2nc(-c3ccc(Oc4ccccc4Cl)cc3)[nH]c2c1`: the metabolised in [2] came out at 38%; in [8] it was 49%; in [4], 58%; in data set [6] it was 45%; in data set [7], 62%. In addition, the IC50 came to 2.34 µM on Stearoyl-CoA desaturase and 0.966 µM against Acyl-CoA desaturase 1 [1]. The Papp in [5] came to 16.7 ×10⁻⁶ cm/s.
`O=C(NCc1ccc(Cl)s1)c1ccc2[nH]c(-c3ccc(Oc4ccccc4)cc3)nc2c1` showed an IC50 against Acyl-CoA desaturase 1 [1] of 3.7 µM.
With `O=C(NCc1nccs1)c1ccc2nc(-c3ccc(Oc4ccccc4)cc3)[nH]c2c1`, on Acyl-CoA desaturase 1 [1], the IC50 turned out to be 6.51 µM.
As to `O=C(NCc1ccc(Cl)s1)c1ccc2[nH]c(-c3ccc(C(=O)c4ccccc4C(F)(F)F)cc3)nc2c1`, the metabolised stood at 40% in data set [2], 40% in data set [4], 10% in data set [6] and 45% in data set [7]. For the same compound, the values for the IC50 against Acyl-CoA desaturase 1 [3], against Stearoyl-CoA desaturase and against Acyl-CoA desaturase 1 [1] were 0.182 µM, 0.157 µM and 0.136 µM, respectively. Moreover, the bioavailability in [9] came to 25%. In the data set on Rattus norvegicus [10], this compound registered a Vdss of 1.7 L/kg. In addition, in [11], the logD was 3.94. Also, the half-life in data set [12] is 6.5 h; in data set [14] it was 8.4 h. For the same compound, in data set [5], the Papp is 5.26 ×10⁻⁶ cm/s. Also, the inhibition in vivo at 30 mg/kg in the data set on Rattus norvegicus [13] turned out to be 84.4%. The same compound showed a Cmax in data set [15] of 1950 ng/mL. The compound also gave a clearance in [16] of 4.17 mL/min/kg.
In turn, `O=C(NCCCc1ccccc1)c1ccc2nc(-c3ccc(Oc4ccccc4C(F)(F)F)cc3)[nH]c2c1` showed an IC50 against Acyl-CoA desaturase 1 [1] of more than 100 µM.
As to `CNC(=O)c1ccc2nc(-c3ccc(Oc4ccccc4C(F)(F)F)cc3)[nH]c2c1`, the IC50 against Acyl-CoA desaturase 1 [1] stood at 27.2 µM.
On to `O=C(NCc1cccs1)c1ccc2nc(-c3ccc(Oc4ccccc4)cc3)[nH]c2c1`, for which, in data set [11], the logD worked out at 3.68. Further, it took 3.76 µM to reach half-maximal inhibition against Acyl-CoA desaturase 1 [1] (IC50).
Regarding `O=C(NCc1ccc(Cl)s1)c1ccc2nc(-c3ccc(Oc4ccccc4Cl)cc3)[nH]c2c1`, the metabolised is 31% in data set [2]; 36% in data set [8]; 62% in data set [4]; 41% in data set [6]; 64% in data set [7]. Besides, the IC50 worked out at 1.36 µM at Stearoyl-CoA desaturase and 0.832 µM at Acyl-CoA desaturase 1 [1]. Besides, the Papp in data set [5] worked out at 11.4 ×10⁻⁶ cm/s.
For `O=C(NCc1nccs1)c1ccc2[nH]c(-c3ccc(Oc4ccccc4C(F)(F)F)cc3)nc2c1`, the IC50 was found to be 0.313 µM on Stearoyl-CoA desaturase and 0.212 µM at Acyl-CoA desaturase 1 [1].
On to `O=C(c1ccccc1)c1ccc2nc(-c3ccc(Oc4ccccc4)cc3)[nH]c2c1`, for which, on Acyl-CoA desaturase 1 [1], the midpoint of inhibition, the IC50, lay at 15.8 µM.
In turn, `O=C(NCc1ccccc1)c1ccc2nc(-c3ccc(Oc4ccccc4)cc3)[nH]c2c1` returned an IC50 against Acyl-CoA desaturase 1 [1] of 7.81 µM.
The compound `CC(C)CCNC(=O)c1ccc2nc(-c3ccc(C(=O)c4ccccc4C(F)(F)F)cc3)[nH]c2c1` gave an IC50 on Acyl-CoA desaturase 1 [1] of 3.86 µM.
On Acyl-CoA desaturase 1 [1], `O=C(c1ccccc1)c1ccc2nc(-c3ccc(C(=O)c4ccccc4C(F)(F)F)cc3)[nH]c2c1` showed an IC50 of more than 100 µM.
The same measure, in the same setting: the same measure for `O=C(c1ccccc1)c1ccc2nc(-c3ccc(-c4ccccc4)cc3)[nH]c2c1`: more than 100 µM.
For `O=C(NCc1nccs1)c1ccc2nc(-c3ccc(Oc4ccccc4Cl)cc3)[nH]c2c1`, the metabolised in data set [2] was found to be 38%; in data set [8], 23%; in data set [4], 40%; in data set [6] it was 16%; in data set [7] it was 45%. In addition, the IC50 worked out at 0.305 µM against Acyl-CoA desaturase 1 [3], 1.16 µM against Stearoyl-CoA desaturase and 0.115 µM against Acyl-CoA desaturase 1 [1]. This compound also returned a logD in data set [11] of 2.24. Besides, the Papp in data set [5] was determined as 6.36 ×10⁻⁶ cm/s.
`CC(C)CCNC(=O)c1ccc2[nH]c(-c3ccc(Oc4ccccc4Cl)cc3)nc2c1` returned an IC50 at Acyl-CoA desaturase 1 [1] of 2.72 µM.
At Acyl-CoA desaturase 1 [1], `O=C(NCCC1CC1)c1ccc2nc(-c3ccc(Oc4ccccc4C(F)(F)F)cc3)[nH]c2c1` had an IC50 of 0.539 µM.
For the compound `CCn1c(COCc2ccccc2)nc2cc(C(=O)NCCc3ccc(O)cc3)ccc21`, half-maximal inhibition on Acyl-CoA desaturase 1 [1] (IC50) required 5 µM.
In the case of `O=C(NCc1cccc(C(F)(F)F)c1)c1ccc2[nH]c(-c3ccc(Oc4ccccc4)cc3)nc2c1`, the IC50 at Acyl-CoA desaturase 1 [1] was 11.8 µM.
On the same count and under the same terms, the value for `O=C(NCc1cccs1)c1ccc2nc(-c3ccc(C(=O)c4ccccc4C(F)(F)F)cc3)[nH]c2c1` was 0.099 µM.
